Laboratory results: patent publication US20040072738A1, “Analogues of thiocoraline and be-22179” (priority 2000, published 2004)
pIC50: −log10 of the molar value. In brackets after ≈: the same amount, converted by molar mass. Bridge positions count the residues as written; N and C are the ends. Square brackets hold non-standard residues; d marks the D form. Peptide text beside a SMILES is read from it. I, II: the chains in the order shown. * marks the point of attachment. Quinaldoyl(3-OH) = O=C(c1nc2ccccc2cc1O)*; NMeC = CN[C@@H](CS)C(=O)O

How the values were obtained:
[1] = molecular target: HIV-1 reverse transcriptase (Human immunodeficiency virus type 1 group M subtype B, UniProt P03366); experiment: inhibition of HIV-1 reverse transcriptase; format: biochemical
[2] = tested on: duplex deoxyoligonucleotides, 5′-GCXXGC-3′ where XX=TA, AT, GC, CG; experiment: fluorescence quenching titration with duplex deoxyoligonucleotides; settings: high-affinity binding, listed as 1
From the text: Consequently, the binding of 1 was examined with a set of four duplex deoxyoligonucleotides, 5′-GCXXGC-3′ where XX=TA, AT, GC, CG, incorporating the high affinity intercalation sites of the related bisintercalatiors echinomycin (5′-PuCGPy) (Corbaz, R., et al., Helv. Chim. Acta 1957, 40, 199; Keller-Schierlein, W., et al., Helv. Chim. Acta 1957, 40, 205; Keller-Schierlein, W., et al., Helv. Chim. Acta 1959, 42, 305; Martin, D. G., et al., J. Antibiot. 1975, 28, 332; Dell, A., et al., J. Am. Chem. Soc. 1975, 97, 2497), sandramycin (5′-CATG) (Boger, D. L., et al., Bioorg. Med. Chem. 1999, 7, 315; Boger, D. L., et al., Bioorg. Med. Chem. 1998, 6, 85), and the luzopeptins (5′-CATG) (Isolation: Konishi, M., et al., J. Antibiot. 1981, 34, 148; Structure and stereochemistry: Arnold, E., et al., J. Am. Chem. Soc. 1981, 103, 1243. Total synthesis (luzopeptins A-C): Boger, D. L., et al., J. Am. Chem. Soc. 1999, 121, 1098; Boger, D. L., et al., J. Am. Chem. Soc. […] The excitation and emission spectra for thiocoraline and BE-22179 were recorded in aqueous buffer (Tris-HCl, pH 7.4, 75 mM NaCl). To minimize fluorescence decrease due to dissolution or photobleaching, the solutions were stirred in 4-mL cuvettes in the dark with the minimum exposure to the excitation beam necessary to obtain a reading. […]

DNA polymerase α = molecular target: T1, DNA polymerase α (Homo sapiens, UniProt P09884); settings: at concentrations that inhibit cell cycle progression and clonogenicity; cited from earlier work
T1 sequence (P09884 1-1462): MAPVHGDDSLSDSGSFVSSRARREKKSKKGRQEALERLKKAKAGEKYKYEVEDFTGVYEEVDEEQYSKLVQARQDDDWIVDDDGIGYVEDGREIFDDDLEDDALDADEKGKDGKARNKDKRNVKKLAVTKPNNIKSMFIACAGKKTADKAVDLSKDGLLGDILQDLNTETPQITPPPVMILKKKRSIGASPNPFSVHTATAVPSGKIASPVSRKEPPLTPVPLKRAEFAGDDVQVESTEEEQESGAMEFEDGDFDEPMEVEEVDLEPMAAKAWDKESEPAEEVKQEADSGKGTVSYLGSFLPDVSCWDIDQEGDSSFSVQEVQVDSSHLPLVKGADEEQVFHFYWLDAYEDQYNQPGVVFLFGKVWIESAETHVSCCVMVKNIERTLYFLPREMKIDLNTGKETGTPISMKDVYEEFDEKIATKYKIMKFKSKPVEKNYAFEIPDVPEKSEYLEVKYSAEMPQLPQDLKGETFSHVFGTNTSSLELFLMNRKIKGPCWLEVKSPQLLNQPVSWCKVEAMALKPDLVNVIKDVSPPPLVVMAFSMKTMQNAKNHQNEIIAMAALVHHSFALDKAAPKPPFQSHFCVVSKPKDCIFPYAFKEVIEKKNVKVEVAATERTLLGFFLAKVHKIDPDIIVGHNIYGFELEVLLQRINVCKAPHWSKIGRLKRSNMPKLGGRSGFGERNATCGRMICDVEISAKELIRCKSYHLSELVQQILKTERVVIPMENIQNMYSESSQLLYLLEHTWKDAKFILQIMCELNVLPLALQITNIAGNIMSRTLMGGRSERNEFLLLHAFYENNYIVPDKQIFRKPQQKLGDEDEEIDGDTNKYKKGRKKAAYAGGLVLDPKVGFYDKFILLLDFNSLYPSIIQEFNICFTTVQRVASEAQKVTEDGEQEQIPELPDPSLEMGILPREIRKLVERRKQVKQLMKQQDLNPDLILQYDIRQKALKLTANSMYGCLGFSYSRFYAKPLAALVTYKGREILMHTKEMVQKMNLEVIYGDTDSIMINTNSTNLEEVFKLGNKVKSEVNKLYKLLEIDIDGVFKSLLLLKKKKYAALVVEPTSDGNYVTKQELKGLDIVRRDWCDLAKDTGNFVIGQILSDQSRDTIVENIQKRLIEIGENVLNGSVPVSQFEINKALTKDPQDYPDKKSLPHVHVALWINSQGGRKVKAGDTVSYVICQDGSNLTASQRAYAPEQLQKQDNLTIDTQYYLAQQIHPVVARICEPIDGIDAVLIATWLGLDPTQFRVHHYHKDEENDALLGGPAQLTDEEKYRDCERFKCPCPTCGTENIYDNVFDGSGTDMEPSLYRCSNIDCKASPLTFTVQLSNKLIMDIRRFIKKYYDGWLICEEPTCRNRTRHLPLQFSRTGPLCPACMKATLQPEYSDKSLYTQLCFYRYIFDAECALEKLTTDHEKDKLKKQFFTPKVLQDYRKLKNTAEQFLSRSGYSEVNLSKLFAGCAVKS

L1210 cell line = experiment: cytotoxic activity in the L1210 assays; settings: read-out: IC50 cytotoxic activity; L1210 cell line
[3] = solubility in aqueous buffer; format: physicochemical; settings: aqueous Tris-HCl buffer; Tris-HCl pH 7.4, 75 mM NaCl; read-out: agent concentrations where the compounds are soluble

Compound: CSC[C@H]1C(=O)SC[C@@H](NC(=O)c2nc3ccccc3cc2O)C(=O)NCC(=O)N(C)[C@H]2CSSC[C@@H](C(=O)N1C)N(C)C(=O)CNC(=O)[C@H](NC(=O)c1nc3ccccc3cc1O)CSC(=O)[C@H](CSC)N(C)C2=O [Thiocoraline] (I: {Quinaldoyl(3-OH)}-[dC]G[NMeC][NMeC](Me) / II: {Quinaldoyl(3-OH)}-[dC]G[NMeC][NMeC](Me); thioester I:1-II:C, I:C-II:1; disulfide I:3-II:3)
- inhibition of HIV-1 reverse transcriptase (in words) [1]: weak inhibitor
- binding constants for the four deoxyoligonucleotides [2]: 3-7×10^6 M^−1
- inhibition of DNA polymerase α (DNA polymerase α): does inhibit
- pIC50 (L1210 cell line): 9.70
- solubility [3]: 1 to 10 µM (≈ 1.16 to 11.6 µg/mL)
